Test results: patent EP1738803A1, “Inhibitors of staphylococcus hominis in deodorants and antiperspirants” (Henkel Kommanditgesellschaft auf Aktien, priority 2005, dated 2007)
Read-outs that look alike come from different tables or passages of the source.

System: Staphylococcus hominis
Assay: Inhibition test: growth of Staphylococcus hominis in Luria broth liquid culture, plate count versus control
Format: cell-based
Settings: for log reduction at 0.1 % / log reduction at 0.05 % / log reduction at 0.2 % / log reduction at 0.5 %: Staphylococcus hominis, read-out: Hemmleistung als Differenz zur Kontrolle in log-Stufen (RF-Wert); for log reduction at 0.1 %: 0,1 Gew.-% Aktivsubstanz; for log reduction at 0.1 % / log reduction at 0.05 % / Hemmleistung als Differenz zur Kontrolle in log-Stufen (RF-Wert): 37°C; for log reduction at 0.05 %: 0,05 Gew.-% Aktivsubstanz; for Hemmleistung als Differenz zur Kontrolle in log-Stufen (RF-Wert): 0,5 Gew.-% Aktivsubstanz
Protocol: Eine Luria-broth-Vorkultur (1 Gew.-% Trypton, 0,5 Gew.-% Hefeextrakt, 0,5 Gew.-% NaCl) von Staphylococcus hominis wurde mit Medium auf eine OD600 von 0,1 (entspricht 10^5-10^7 cfu/ml) eingestellt und in 50 ml-Aliquots auf Erlenmeyer-Kolben verteilt. Dazu wurden die zu testenden Wirkstoffe gegeben, so dass sie in den in Tabelle 1 angegebenen Konzentrationen vorlagen, und die Kultur mit 100 Upm bei 37°C inkubiert. Öllösliche Stoffe wie Bisabolol wurden mit 0,1% Tween emulgiert und gegen eine entsprechende Kontrolle getestet. Nach 4, 8 und 24 h erfolgte eine Keimzahlbestimmung über Ausplattieren, wobei die Hemmleistung der einzelnen Wirkstoffe als RF-Wert (Differenz zur Kontrolle in log-Stufen) angegeben ist. Tabelle 1

**Q.** For `CC(C)=CCC[C@](C)(O)C1CC=C(C)CC1` (stereo partly drawn) [(-)-α-Bisabolol], which log reduction at 0.1 % (Zeit 0 h) is on record?
**A.** The log reduction at 0.1 % was 0.

**Q.** And the log reduction at 0.1 % (Zeit 4 h)?
**A.** Its log reduction at 0.1 % is 1.98.

**Q.** What about the log reduction at 0.1 % (Zeit 8 h) of the same compound?
**A.** Its log reduction at 0.1 % is 2.6.

**Q.** What about the log reduction at 0.05 % (Zeit 0 h) of the same compound?
**A.** Its log reduction at 0.05 % is 0.

**Q.** And the log reduction at 0.05 % (Zeit 4 h)?
**A.** The log reduction at 0.05 % was 1.3.

**Q.** What about the log reduction at 0.05 % (Zeit 8 h) of the same compound?
**A.** Its log reduction at 0.05 % is 1.75.

**Q.** How did the log reduction at 0.2 % (0 h) turn out when `CCCCC(CC)COCC(O)CO` (stereo not drawn) [Sensiva SC 50, α-Mono-(2-ethylhexyl)glycerinether] was run?
**A.** Its log reduction at 0.2 % is 0.

**Q.** And the log reduction at 0.5 % (0 h)?
**A.** The log reduction at 0.5 % was 0.

**Q.** What about the log reduction at 0.2 % (4 h) of the same compound?
**A.** The log reduction at 0.2 % was 5.77.

**Q.** And the log reduction at 0.5 % (4 h)?
**A.** The log reduction at 0.5 % was 6.14.

**Q.** What about the log reduction at 0.2 % (8 h) of the same compound?
**A.** The log reduction at 0.2 % was 6.19.

**Q.** And the log reduction at 0.5 % (8 h)?
**A.** Its log reduction at 0.5 % is 6.63.

**Q.** For Aluminiumchlorhydrat, which “Hemmleistung als Differenz zur Kontrolle in log-Stufen (RF-Wert)” value (Zeit 0 h) is on record?
**A.** The value was 0 log-Stufen.

**Q.** And the “Hemmleistung als Differenz zur Kontrolle in log-Stufen (RF-Wert)” value (Zeit 4 h)?
**A.** Its value is 6,07 log-Stufen.

**Q.** What about the “Hemmleistung als Differenz zur Kontrolle in log-Stufen (RF-Wert)” value (Zeit 8 h) of the same compound?
**A.** The value was 6,34 log-Stufen.
